These results are taken from US20250195468A1, “METHODS AND COMPOSITIONS FOR TREATING COLORECTAL CANCER WITH INDOXYL SULFATE” (National Institute of Immunology, priority 2023, published 2025).

For series [1], the system named is HCT-116 cells. Briefly: Apoptosis assay, Annexin V-FITC/PI flow cytometry. The format is cell-based, human. The conditions noted are these: for apoptotic percentage: 48 hours, untreated 3%. The method, then:
(§1) The apoptotic effect of IS was evaluated on HCT-116 and HT-29 cells using the propidium iodide (PI)/Annexin V-fluorescein isothiocyanate (FITC) dual staining kit (ab14085: Abcam, USA). Duplicate wells of cells were cultured at a density of 3×10^5 cells per well in 6-well plates. After 24 hours of seeding, the cells were treated with IS at concentrations of 1.25 mM, 5 mM, and 10 mM. Following a 48-hour treatment period, the cells were harvested using trypsin and washed twice with PBS. After the washing steps, the cells were resuspended in 1 ml of fresh media and counted at each concentration using a hematocytometer. From each concentration, 2×10^5 cells were taken and dissolved in 500 μl of binding buffer, 5 μl of PI, and 5 μl of Annexin V-FITC. The cells were then incubated in the dark at room temperature for 30 minutes. Subsequently, the cells were analyzed for apoptosis using flow cytometry (BD Biosciences, FACS Canto™ Flow Cytometer, Germany) at 488 nm. Untreated cells were used as controls for comparison.
(In general: In flow cytometry, cells or beads pass a laser one at a time.)

The test system of series [2] is HT-29 cells. Briefly: Apoptosis assay, Annexin V-FITC/PI flow cytometry. In kind it is cell-based, human. The conditions noted are these: for apoptotic percentage: 48 hours, untreated 3%. How it is done:
as §1

For series [3], the system named is HCT-116 cells. In words: Cell viability by MTT assay. In kind it is cell-based, human. The conditions noted are these: for viability at 10000 µM: Homo sapiens, HCT-116, 10 mM, untreated = 100%. The method, then: (§2) Human colon epithelial adenocarcinoma cell lines, HT-29 and HCT-116 (procured from ATCC), are commonly utilized for CRC research. HT-29 cells were cultured in McCoy 5A media (Gibco) supplemented with 10% heat-inactivated FBS (Gibco) and penicillin-streptomycin (Sigma-Aldrich: Merck KGaA, Germany). On the other hand, HCT-116 cells were cultured in Dulbecco's modified Eagle's medium-F12 nutrient mixture (DMEM-F12: Gibco) supplemented with 10% heat-inactivated FBS (Gibco) and penicillin-streptomycin (Sigma-Aldrich: Merck KGaA, Germany). The cells were incubated in a humidified incubator at 37° C. with 5% CO2.
(§3) To evaluate the impact of IS treatment, cell viability was assessed using Thiazolyl Blue Tetrazolium Bromide (MTT) dye. HT-29 and HCT-116 cells were seeded at a density of 3000 cells per well in a 96-well plate. After 24 hours of seeding, the cells were exposed to various concentrations of IS, including 0.018 mM, 0.037 mM, 0.075 mM, 0.15 mM. 0.31 mM, 0.62 mM. 1.25 mM, 2.5 mM, 5 mM, and 10 mM. Triplicate wells were treated with IS for three different incubation periods: 24 hours, 48 hours, and 72 hours. After the respective incubation periods. 20 μl of MTT dye (5 mg/ml) was added to each well and incubated for 3 hours. The yellow MTT dye is converted into purple formazan crystals by the mitochondrial succinate dehydrogenase enzyme, NAD (P) H. Following the incubation, 100 μl of dimethyl sulphoxide (DMSO) was added to dissolve the formazan crystals. Formazan crystal dissolve immediately after adding DMSO, so taken the reading just after adding the DMSO. The intensity of the purple color is directly proportional to cell viability. Absorbance was measured at 570 nm using a Multiskan Sky microplate spectrophotometer (Thermo Scientific). Non-treated cells served as controls and were considered 100% viable.

The test system of series [4] is HT-29 cells. Briefly: Cell viability by MTT assay. The format is cell-based, human. The conditions noted are these: for viability at 10000 µM: Homo sapiens, HT-29, 10 mM, untreated = 100%. The method, then: as §2, §3
In general terms: Tetrazolium dyes change colour on reduction, which living cells bring about.

In series [5] the test system is HCT-116 cells. In words: Clonogenic (colony forming) assay. The conditions noted are these: HCT-116, 1.25-10 mM for 48 hours, 10 days colony growth. In kind it is cell-based, human. The method, then: (§4) To assess the colony-forming ability of cells after treatment with IS, a colony forming assay was performed. HCT-116 and HT-29 cells were cultured in 6-well plates at a density of 2×10^5 cells per well. After 24 hours of seeding, the cells were exposed to IS at concentrations of 1.25 mM, 5 mM, and 10 mM. Following a 48-hour treatment period, the cells were harvested using trypsin and counted for each treatment. From each treatment group, 400, 800, and 1200 cells were plated and incubated for 10 days in 6-well plates. During the incubation period, the media were replenished every alternate day. After 10 days, the colonies were washed with PBS and stained with 0.5% crystalline violet. The cells were then fixed with 6% glutaraldehyde. The colonies were visualized and counted using ImageJ software. The clonogenic efficiency of the treated cells was compared to that of the untreated cells.

Series [6] has as its system HT-29 cells. Briefly: Clonogenic (colony forming) assay. The conditions noted are these: HT-29, 1.25-10 mM for 48 hours, 10 days colony growth. The format is cell-based, human. How it is done:
as §4

Series [7] relates to inflammatory cytokines IL-17A, IL-1β and TNF-α. In words: Cytokine study (ELISA of blood samples). The format is in vivo, mice. The conditions noted are these: IP and IR, zero, 1 month, 2 month. The method, then:
Each group consisted of six mice. […] For the cytokine study, blood samples were collected from the mice. The cytokines of interest, IL-1β, TNF-α, and IL-17A, were analyzed in all groups at three different time points: baseline (time point zero), one month, and two months. The analysis was performed using an ELISA kit from R&D Systems. The experimental procedure for cytokine study followed the instructions provided with the kit. In summary, each well of the ELISA plate was coated with a specific monoclonal antibody against the respective cytokines. Then, 50 ul of standard, control, and sample were added to the appropriate wells. The plate was incubated at room temperature (RT) for 2 hours. After incubation, each well was washed four times with 400 ul of buffer to remove any unbound substances. Subsequently, 100 ul of the secondary antibody conjugate was added to each well and incubated at RT for another 2 hours. Following the second incubation, the wells were washed four times, and 100 ul of substrate solution was added. The plate was then incubated for 30 minutes at RT in the dark. After incubation, 100 ul of stop solution was added to each well to halt the enzymatic reaction. The optical density (OD) of the samples was measured at wavelengths of 450 nm and 570 nm within 30 minutes of adding the stop solution. To obtain the final readings, the absorbance at 570 nm was subtracted from the absorbance at 450 nm.
Background: In an ELISA, binding on a coated surface is turned into a signal by an enzyme label.

Setting [8] is: 10 mM, 48-hour treatment, stated for cells in general.

Where a name gives a salt, the structure may show the parent alone.

A word on the viability: it is the share of living cells, or the viability signal relative to a control. Regarding `O=S(=O)(O)Oc1c[nH]c2ccccc12` [IS, Indoxyl Sulfate], the “increase in cell apoptosis compared to the control” value with HCT-116 cells [1] (setting [8]) and in the series on HT-29 cells [2] (setting [8]) was 10% each time. Also, the apoptotic percentage in the series with HCT-116 cells [1] (HCT-116, 5 mM) stood at 9%; with HCT-116 cells [1] (HCT-116, 10 mM) it was 13%; in the series with HT-29 cells [2] (HT-29, 5 mM), 8%; in the series on HT-29 cells [2] (HT-29, 10 mM), 12%. For the same compound, the “cell viability” value in the series on HCT-116 cells [3] (0.62 mM, cell line not given) is “cell viability unexpectedly increased”; in the series with HT-29 cells [4] (0.62 mM, cell line not given), “cell viability unexpectedly increased”. Further, the viability at 10000 µM in the series with HCT-116 cells [3] (24 hours) stood at 30%; with HCT-116 cells [3] (48 hours), 7%; with HCT-116 cells [3] (72 hours), 4%; in the series on HT-29 cells [4] (24 hours), 41%; in the series with HT-29 cells [4] (48 hours), 30%; in the series with HT-29 cells [4] (72 hours), 17%. Further, the “number of colonies formed compared to control” value in the series on HCT-116 cells [5] and in the series on HT-29 cells [6] was “significant reduction in the number of colonies formed” each time. Moreover, the “level of IL-1β vs control groups” value in series [7] was “no significant differences”. Further, the “level of IL-17A vs control groups” value in series [7] was “no significant differences”. In addition, the “level of TNF-α vs control groups” value in series [7] is “no significant differences”.
